Experimental data from patent US6706754B2, “Reversed amidines and methods of using for treating, preventing, or inhibiting leishmaniasis” (The United States of America as represented by the …, priority 2000, dated 2004).

Experiments:
Assay type in all cases: cell-based
[1] = tested on: L. donovani axenic amastigote-like parasites; assay: Axenic amastigote assay (CellTiter 96 tetrazolium dye growth assay); conditions: 72 hours, 37° C., pH 5.5, concentration that inhibited parasite growth by 50%
Description: The growth susceptibilities of L. donovani axenic amastigote-like parasites to the candidate compounds were measured in a three day assay using the tetrazolium dye-based CellTiter 96 Aqueous Non-Radioactive Cell Proliferation Assay Kit (Promega, Madison, Wis.) according to Werbovetz, K., et al. (1999) Mol. Biochem. Parasitol. 98:53-65, which is herein incorporated by reference. Pentamidine, at a starting concentration of 100 μM, and serial dilutions thereof were used as controls. Specifically, L. donovani axenic amastigotes, as described by Joshi, M. et al. (1993) Mol. Biochem. Parasitol. 58:345-354, which is herein incorporated by reference, were seeded at 10^6 cells/ml in 96-well flat-bottomed plates (Costar, Cambridge, Mass.) and maintained as axenic amastigote-like forms by serial passage at 37° C. in a humid atmosphere comprising 5% CO2 using a slightly modified potassium-based version of the medium described by Joshi, M. et al. (1993) in the presence or absence of a given candidate compound. The medium comprised 15 mM KCl, […] KH2PO4, 10 mM K2HPO4, 0.5 mM MgSO4, and 24 mM NaHCO3 to give a final potassium concentration of […]. The medium was supplemented with 20% fetal bovine serum and was brought to pH 5.5. The final volume in each well was 60 μl. The plates were incubated at 37° C. for 72 hours, then 12 μl of the aqueous CellTiter solution from the kit (Promega, Madison, Wis.) was added to each well according to the instructions of the manufacturer. The plates were returned to the incubator for about 2 to about 3 hours. Then the absorbance of each well was measured at 490 nm using a SpectraMax Plus microplate reader (Molecular Devices, Sunnyvale, Calif.).
The results for each candidate compound may be found in the FIG. 1. The IC50 values (the concentration of the agent that inhibited parasite growth by 50%) for each candidate compound were determined for axenic amastigotes with the aid of the program SoftMax Pro (Molecular Devices, Sunnyvale, Calif.) using the following dose response equation: y=((a−d)/1+(x/c)^b)+d, wherein x=drug concentration; y=absorbance at 490 nm; a=upper asymptote; b=slope; c=IC50; and d=lower asymptote. FIG. 2 is the graphical data obtained for compound 1DWB667 as an example.

[2] = tested on: L. donovani infected macrophages; assay: Infected macrophage assay, L. donovani; conditions: for Macrophage IC50 L. donovani: J774.G8 mouse macrophages, 72 hours, 37° C., number of infected macrophages inhibited by 50%
Text: (§1) A one week old, confluent culture of J774.G8 mouse macrophages was washed three times with Hank's Balanced Salt Solution (HBSS) without calcium and magnesium (Sigma, St. Louis, Mo.). The J774.G8 mouse macrophages are a continuous cell line that have been cited in the literature as supporting continuous and intracellular growth of various Leishmania sp. and they have been used for drug assays against intracellular parasites, Trypanosoma cruzi and Leishmania sp. See Alcina, A., et al. (1988) Antimicrobial Agents & Chemotherapy. 32(9):1412-5; Mendez, S., et al. (1996) International Journal for Parasitology 26(6):619-22; Hodgkinson, V. H., et al. (1996) Experimental Parasitology 83(1):94-105; and Chang, K. P. (1980) Science 209(4462): 1240-42, which are herein incorporated by reference.
(§2) The macrophages were then incubated at 37° C. in a humidified 5% CO2 incubator for 15 minutes with a Trypsin-EDTA (0.05% Trypsin, 0.53 mM EDTA 4Na) solution (GIBCO BRL, Grand Island, N.Y.). The macrophages were then detached with a cell scraper and suspended by vigorous pipetting. The macrophages were then mixed with a late log phase culture of L. mexicana promastigotes to yield a solution comprising about 5×10^5 macrophages per ml and about 25×10^5 promastigotes per ml in DMEM (pH 7.4) supplemented with 10% heat inactivated fetal calf serum comprising penicillin (50 units/ml) and streptomycin (50 μg/ml).
(§3) The macrophage-parasite mixture was then pipetted into 96-well flat-bottom plates (Costar, Cambridge, Mass.) at 200 μl per well. Infection and attachment of the macrophages was allowed to occur over a period of about 48 hours at 33° C. in a humidified 5% CO2 incubator. The wells were washed three times with HBSS to remove extracellular parasites. Each well was then treated with serial dilutions of a given candidate compound in DMEM.
(§4) The treated plate was incubated for about 72 hours at 33° C. in a humidified 5% CO2 incubator. The macrophages in each well were detached into the DMEM used for the incubation by pipetting and scraping with the tip of a microliter pipettor. 75 μl of the cell suspension was transferred to a cytospin funnel and the cells were centrifuged onto microscope slides at 800 rpm for 5 minutes using a Cytospin centrifuge (Shandon, Pittsburgh, Pa.).
(§5) The slides were air dried and then fixed in methanol for 5 seconds. After the methanol evaporated, the slides were stained with 5% Giemsa stain (Fisher, Suwanee, Ga.) in phosphate buffer comprising 3.1 mM potassium phosphate dibasic and 8.3 mM sodium phosphate monobasic for 45 minutes. After thorough washing with flowing tap water, the slides were air dried and then viewed by oil immersion microscopy to determine percentage of infected cells. A cell was considered to be infected if it comprised one or more amastigote with a visible parasite nucleus and kinetoplast. Counting parasites and counting infected cells provided similar results when determining IC50 values.
(§6) The IC50 values (the concentration of the compound that inhibited the number of infected macrophages by 50%) were determined with the software program TableCurve (SPSS Science, Chicago, Ill.) using the following dose-response equation: y=a+b/(1+(x/c)^d), where x=the drug concentration, y=absorbance at 490 nm, a=upper asymptote, b=slope, c=IC50 and d=lower asymptote. FIG. 3 provides the graphical data obtained for compound 1DWB667 as an example.
The susceptibility of L. donovani infected macrophages to the compounds of the present invention were preformed by a modified protocol for L. mexicana infected macrophages above, wherein all incubations of the parasite infected macrophages were done at 37° C. rather than 33° C. FIG. 4 provides the graphical data for compound 1DWB667 as an example.

[3] = tested on: L. mexicana infected macrophages; assay: Infected macrophage assay, L. mexicana; conditions: for Macrophage IC50 L. mexicana: J774.G8 mouse macrophages, 72 hours, 33° C., number of infected macrophages inhibited by 50%
Description: The susceptibilities of L. mexicania infected macrophages to candidate compounds were determined by the following assay.
as §1, §2, §3, §4, §5, §6

Substance	Axenic Amastigote IC50 L. donovani [1] [µg/mL]	Axenic Amastigote IC50 L. donovani ([1]; listed as DB702)	Macrophage IC50 L. donovani [2] [µg/mL]	Macrophage IC50 L. donovani ([2]; listed as DB702)	Macrophage IC50 L. mexicana [3] [µg/mL]	Axenic Amastigote IC50 L. donovani ([1]; listed as DB709)	Macrophage IC50 L. mexicana ([3]; listed as DB709)	Macrophage IC50 L. donovani ([2]; listed as 1DWB667)	Macrophage IC50 L. mexicana ([3]; listed as DB667)	reduction of parasite burden in L. donovani infected macrophages (in words) ([2]; in vitro, visceral strain)	reduction of parasite burden in L. mexicana infected macrophages (in words) ([3]; in vitro, cutaneous strain)	Axenic Amastigote IC50 L. donovani ([1]; listed as DB710)	Macrophage IC50 L. mexicana ([3]; listed as DB710)
2,5-Bis[2-methyl-4-(2-pyridylimino)aminophenyl]furan [DB 702]	0.174	about 0.2 μg/ml	0.063	about 0.1 μg/ml	0.220	–	–	–	–	–	–	–	–
2,5-Bis[2-methoxy-4-(2-pyridylimino)aminophenyl]furan [DB 709]	0.157	–	0.104	–	0.127	about 0.2 μg/ml	about 0.1 μg/ml	–	–	–	–	–	–
2,5-Bis[4-(2-pyridylimino)aminophenyl]furan [1DWB 667]	0.550	–	0.942	–	1.37	–	–	about 1.4 μg/ml	about 1.4 μg/ml	–	–	–	–
2,5-Bis[2-chloro-4-(2-pyridylimino)aminophenyl]furan [DB 712]	0.308	–	0.127	–	0.689	–	–	–	–	least effective in reducing parasite burden	least effective in reducing parasite burden	–	–
2,5-Bis[2-methyl-4-(5-methyl-2-pyridylimino)aminophenyl]furan [DB 710]	0.242	–	0.530	–	0.094	–	–	–	–	–	–	about 0.2 μg/ml	about 0.1 μg/ml
